Where “and” joins values, the source holds several entries; their conditions need not be identical. Equal entries are not always repeated.
Test system: 967376-340-R-J2-PDC multicell spheroid viability
Test: Anticancer human tumor 967376-340-R-J2-PDC patient-derived colon adenocarcinoma cell line growth inhibition [PI3K]
Conditions: for viability, T/C: stronger effect = lower value
How it was run: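 We assembled tumor spheroids that included a stromal compartment of HUVEC and MSCs, then exposed them to targeted agents alone and together with PI3K pathway inhibitors. Concentration series descended by half-log from clinically achievable Cmax levels. Viability served as the endpoint.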

[1] = curve of first compound, second compound 0.0316 µM
[2] = curve of first compound, second compound 0.1 µM
[3] = curve of first compound, second compound 0.316 µM
[4] = curve of first compound, second compound 1 µM
[5] = curve of first compound, second compound 3.16 µM
[6] = curve of first compound, second compound 10 µM
[7] = second compound 0.0316 µM, first compound 0.0316 µM
[8] = second compound 0.0316 µM, first compound 0.1 µM
[9] = second compound 0.0316 µM, first compound 0.316 µM
[10] = second compound 0.0316 µM, first compound 1 µM
[11] = second compound 0.0316 µM, first compound 3.16 µM
[12] = second compound 0.0316 µM, first compound 10 µM
[13] = second compound 0.1 µM, first compound 0.0316 µM
[14] = second compound 0.1 µM, first compound 0.1 µM
[15] = second compound 0.1 µM, first compound 0.316 µM
[16] = second compound 0.1 µM, first compound 1 µM
[17] = second compound 0.1 µM, first compound 3.16 µM
[18] = second compound 0.1 µM, first compound 10 µM
[19] = second compound 0.316 µM, first compound 0.0316 µM
[20] = second compound 0.316 µM, first compound 0.1 µM
[21] = second compound 0.316 µM, first compound 0.316 µM
[22] = second compound 0.316 µM, first compound 1 µM
[23] = second compound 0.316 µM, first compound 3.16 µM
[24] = second compound 0.316 µM, first compound 10 µM
[25] = second compound 1 µM, first compound 0.0316 µM
[26] = second compound 1 µM, first compound 0.1 µM
[27] = second compound 1 µM, first compound 0.316 µM
[28] = second compound 1 µM, first compound 1 µM
[29] = second compound 1 µM, first compound 3.16 µM
[30] = second compound 1 µM, first compound 10 µM
[31] = second compound 3.16 µM, first compound 0.0316 µM
[32] = second compound 3.16 µM, first compound 0.1 µM
[33] = second compound 3.16 µM, first compound 0.316 µM
[34] = second compound 3.16 µM, first compound 1 µM
[35] = second compound 3.16 µM, first compound 3.16 µM
[36] = second compound 3.16 µM, first compound 10 µM
[37] = second compound 10 µM, first compound 0.0316 µM
[38] = second compound 10 µM, first compound 0.1 µM
[39] = second compound 10 µM, first compound 0.316 µM
[40] = second compound 10 µM, first compound 1 µM
[41] = second compound 10 µM, first compound 3.16 µM
[42] = second compound 10 µM, first compound 10 µM
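Further: spheroids exposed to agents for 7 days before read-out.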
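Wherever viability, T/C is given: luminescence used as surrogate of cell viability.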

CC1(C)CCC(Nc2ncc(C(F)(F)F)c(-c3c[nH]c4c(P(C)(C)=O)c(C#N)ccc34)n2)CN1 (stereo not given) + Cc1nc(NC(=O)N2CCCC2C(N)=O)sc1-c1ccnc(C(C)(C)C(F)(F)F)c1
IC50 [1]: 3.81 µM
IC50 [2]: 6.06 µM
IC50 [3]: 3.95 µM
IC50 [4]: 0.629 µM
IC50 [5]: 0.386 µM
IC50 [6]: 0.0432 µM
viability, T/C [7]: 82.8%
viability, T/C [8]: 72.5%
viability, T/C [9]: 55.6%
viability, T/C [10]: 54.7%
viability, T/C [11]: 61.5%
viability, T/C [12]: 40.8%
viability, T/C [13]: 78.4%
viability, T/C [14]: 68.8%
viability, T/C [15]: 69.7%
viability, T/C [16]: 66.8%
viability, T/C [17]: 63%
viability, T/C [18]: 41.2%
viability, T/C [19]: 67.5%
viability, T/C [20]: 73.3%
viability, T/C [21]: 48.5%
viability, T/C [22]: 58.5%
viability, T/C [23]: 60.4%
viability, T/C [24]: 39.2%
viability, T/C [25]: 51.6%
viability, T/C [26]: 53.8%
viability, T/C [27]: 72.8%
viability, T/C [28]: 43.6%
viability, T/C [29]: 45.5%
viability, T/C [30]: 34.1%
viability, T/C [31]: 58.9%
viability, T/C [32]: 51.2%
viability, T/C [33]: 49.4%
viability, T/C [34]: 47.3%
viability, T/C [35]: 41.4%
viability, T/C [36]: 30.7%
viability, T/C [37]: 54.8%
viability, T/C [38]: 39.1%
viability, T/C [39]: 39.6%
viability, T/C [40]: 34.9%
viability, T/C [41]: 31.4%
viability, T/C [42]: 23.3%

CC(C)NCC(C(=O)N1CCN(c2ncnc3c2C(C)CC3O)CC1)c1ccc(Cl)cc1 (stereo not given) + CC(Nc1ncnc2nc[nH]c12)c1cc2cccc(Cl)c2c(=O)n1-c1ccccc1
IC50 [1]: > 10 µM
IC50 [2]: > 10 µM
IC50 [3]: > 10 µM
IC50 [4]: > 10 µM
IC50 [5]: > 10 µM
IC50 [6]: > 10 µM
viability, T/C [7]: 100%
viability, T/C [8]: 80.4%
viability, T/C [9]: 101%
viability, T/C [10]: 96.1%
viability, T/C [11]: 88.6%
viability, T/C [12]: 86.5%
viability, T/C [13]: 102%
viability, T/C [14]: 85%
viability, T/C [15]: 85.4%
viability, T/C [16]: 83.5%
viability, T/C [17]: 84.8%
viability, T/C [18]: 65.1%
viability, T/C [19]: 111%
viability, T/C [20]: 104%
viability, T/C [21]: 101%
viability, T/C [22]: 96.7%
viability, T/C [23]: 90.7%
viability, T/C [24]: 78.5%
viability, T/C [25]: 84.2%
viability, T/C [26]: 90.5%
viability, T/C [27]: 83.9%
viability, T/C [28]: 102%
viability, T/C [29]: 87.4%
viability, T/C [30]: 77.1%
viability, T/C [31]: 94%
viability, T/C [32]: 64.8%
viability, T/C [33]: 77.5%
viability, T/C [34]: 91.1%
viability, T/C [35]: 93.1%
viability, T/C [36]: 79.4%
viability, T/C [37]: 94.8%
viability, T/C [38]: 90.5%
viability, T/C [39]: 68.4%
viability, T/C [40]: 94.2%
viability, T/C [41]: 76.2%
viability, T/C [42]: 86.9%

C=CC(=O)N1CCN(c2nc(=O)n(-c3c(C)ccnc3C(C)C)c3nc(-c4c(O)cccc4F)c(F)cc23)C(C)C1 (stereo not given)
viability, T/C (compound 0.0316 µM): 106% and 98.1% and 85.1%
viability, T/C (compound 0.1 µM): 87.2% and 75.8% and 115%
viability, T/C (compound 0.316 µM): 106% and 107% and 86.6%
viability, T/C (compound 1 µM): 97.1% and 124% and 96.3%
viability, T/C (compound 3.16 µM): 119% and 123% and 101%
viability, T/C (compound 10 µM): 112% and 107% and 119%
IC50 (curve of compound): > 10 µM

Cn1cnc2c(F)c(Nc3ccc(Br)cc3Cl)c(C(=O)NOCCO)cc21 + Cc1nc(NC(=O)N2CCCC2C(N)=O)sc1-c1ccnc(C(C)(C)C(F)(F)F)c1
IC50 [1]: 0.659 µM
IC50 [2]: 0.679 µM
IC50 [3]: 0.36 µM
IC50 [4]: 0.304 µM
IC50 [5]: 0.0977 µM
IC50 [6]: 0.0394 µM
viability, T/C (second compound 0.0316 µM, first compound 0.00949 µM): 89%
viability, T/C (second compound 0.0316 µM, first compound 0.03 µM): 101%
viability, T/C (second compound 0.0316 µM, first compound 0.0949 µM): 104%
viability, T/C (second compound 0.0316 µM, first compound 0.3 µM): 60%
viability, T/C (second compound 0.0316 µM, first compound 0.949 µM): 48.1%
viability, T/C (second compound 0.0316 µM, first compound 3 µM): 19.7%
viability, T/C (second compound 0.1 µM, first compound 0.00949 µM): 88.3%
viability, T/C (second compound 0.1 µM, first compound 0.03 µM): 56.1%
viability, T/C (second compound 0.1 µM, first compound 0.0949 µM): 76.7%
viability, T/C (second compound 0.1 µM, first compound 0.3 µM): 61.8%
viability, T/C (second compound 0.1 µM, first compound 0.949 µM): 43.8%
viability, T/C (second compound 0.1 µM, first compound 3 µM): 28.7%
viability, T/C (second compound 0.316 µM, first compound 0.00949 µM): 68.5%
viability, T/C (second compound 0.316 µM, first compound 0.03 µM): 81.5%
viability, T/C (second compound 0.316 µM, first compound 0.0949 µM): 62.5%
viability, T/C (second compound 0.316 µM, first compound 0.3 µM): 56.7%
viability, T/C (second compound 0.316 µM, first compound 0.949 µM): 27%
viability, T/C (second compound 0.316 µM, first compound 3 µM): 16%
viability, T/C (second compound 1 µM, first compound 0.00949 µM): 68.8%
viability, T/C (second compound 1 µM, first compound 0.03 µM): 64.4%
viability, T/C (second compound 1 µM, first compound 0.0949 µM): 61.1%
viability, T/C (second compound 1 µM, first compound 0.3 µM): 51.6%
viability, T/C (second compound 1 µM, first compound 0.949 µM): 28.4%
viability, T/C (second compound 1 µM, first compound 3 µM): 15.6%
viability, T/C (second compound 3.16 µM, first compound 0.00949 µM): 54%
viability, T/C (second compound 3.16 µM, first compound 0.03 µM): 64.8%
viability, T/C (second compound 3.16 µM, first compound 0.0949 µM): 49.2%
viability, T/C (second compound 3.16 µM, first compound 0.3 µM): 26.6%
viability, T/C (second compound 3.16 µM, first compound 0.949 µM): 9.72%
viability, T/C (second compound 3.16 µM, first compound 3 µM): 3.22%
viability, T/C (second compound 10 µM, first compound 0.00949 µM): 54.6%
viability, T/C (second compound 10 µM, first compound 0.03 µM): 49.7%
viability, T/C (second compound 10 µM, first compound 0.0949 µM): 44.6%
viability, T/C (second compound 10 µM, first compound 0.3 µM): 28.8%
viability, T/C (second compound 10 µM, first compound 0.949 µM): 5.99%
viability, T/C (second compound 10 µM, first compound 3 µM): 1.33%

CCCS(=O)(=O)Nc1ccc(F)c(C(=O)c2c[nH]c3ncc(-c4ccc(Cl)cc4)cc23)c1F + CC(Nc1ncnc2nc[nH]c12)c1cc2cccc(Cl)c2c(=O)n1-c1ccccc1
IC50 [1]: > 10 µM
IC50 [2]: > 10 µM
IC50 [3]: > 10 µM
IC50 [4]: > 10 µM
IC50 [5]: > 10 µM
IC50 [6]: > 10 µM
viability, T/C [7]: 122%
viability, T/C [8]: 125%
viability, T/C [9]: 109%
viability, T/C [10]: 113%
viability, T/C [11]: 103%
viability, T/C [12]: 58.9%
viability, T/C [13]: 97.2%
viability, T/C [14]: 106%
viability, T/C [15]: 99.1%
viability, T/C [16]: 90.5%
viability, T/C [17]: 92%
viability, T/C [18]: 52.7%
viability, T/C [19]: 103%
viability, T/C [20]: 89.1%
viability, T/C [21]: 96.6%
viability, T/C [22]: 96.3%
viability, T/C [23]: 109%
viability, T/C [24]: 60.4%
viability, T/C [25]: 98.2%
viability, T/C [26]: 95.4%
viability, T/C [27]: 105%
viability, T/C [28]: 92.7%
viability, T/C [29]: 110%
viability, T/C [30]: 58.4%
viability, T/C [31]: 119%
viability, T/C [32]: 79.9%
viability, T/C [33]: 92.2%
viability, T/C [34]: 111%
viability, T/C [35]: 100%
viability, T/C [36]: 74.9%
viability, T/C [37]: 84.2%
viability, T/C [38]: 87.1%
viability, T/C [39]: 80%
viability, T/C [40]: 88.7%
viability, T/C [41]: 98.7%
viability, T/C [42]: 61.1%

Source: PubChem BioAssay AID1963962 (Molecular Pharmacology Branch, DTP, NCI, 2024)
